Reference: patent publication US8563729B2, “Thienopyridone derivatives as AMP-activated protein kinase (AMPK) activators” (Merck Patent GmbH, priority 2008, dated 2013)

Biological target: T1, AMPK protein (recombinant α1β1γ2) (Homo sapiens, UniProt Q13131+Q9Y478)
T1 construct: made in house; host or cells: E. coli
Assay: AMPK enzymatic activity (Delfia, AMARA peptide substrate)
Type: biochemical
Details: compound 30 μM vs AMP 30 μM; 125 μM ATP; ratio 90% or higher = direct activator
Method: The following biological test allows the determination of the efficacy of such compounds of formula (I) onto AMPK protein (recombinant α1β1γ2).
Human recombinant AMPK enzyme was expressed in E. Coli and was reactivated in vitro by LKB1 prior to enzyme activity determination.
AMPK enzyme activities were assayed by using A Delfia technology. AMPK enzyme activities were carried out in microtiter plates (50 mM Hepes buffer, pH 7.4 with 125 μM ATP respectively) in the presence of a synthetic peptide substrate (AMARAASAAALARRR, the “AMARA” peptide) and activators in serial dilutions. Reactions were initiated by the addition of AMPK (50-100 ng). Following mixing, the plates were incubated for 30 min at room temperature. Enzyme activity was assayed by using an anti-phosphoserine antibody to measure the quantity of phosphate incorporated into the AMARAA.
N°: Number of the molecule
Activity: Ratio between the % of control (basal activity) of compound of formula (I) at 30 μM and the % of control (basal activity) of AMP (natural substrate) at 30 μM.
Compounds of formula (I) in the table II are considered as direct activator of AMPK if the ratio is 90% or higher.

T1 sequence (Q13131 whole entry): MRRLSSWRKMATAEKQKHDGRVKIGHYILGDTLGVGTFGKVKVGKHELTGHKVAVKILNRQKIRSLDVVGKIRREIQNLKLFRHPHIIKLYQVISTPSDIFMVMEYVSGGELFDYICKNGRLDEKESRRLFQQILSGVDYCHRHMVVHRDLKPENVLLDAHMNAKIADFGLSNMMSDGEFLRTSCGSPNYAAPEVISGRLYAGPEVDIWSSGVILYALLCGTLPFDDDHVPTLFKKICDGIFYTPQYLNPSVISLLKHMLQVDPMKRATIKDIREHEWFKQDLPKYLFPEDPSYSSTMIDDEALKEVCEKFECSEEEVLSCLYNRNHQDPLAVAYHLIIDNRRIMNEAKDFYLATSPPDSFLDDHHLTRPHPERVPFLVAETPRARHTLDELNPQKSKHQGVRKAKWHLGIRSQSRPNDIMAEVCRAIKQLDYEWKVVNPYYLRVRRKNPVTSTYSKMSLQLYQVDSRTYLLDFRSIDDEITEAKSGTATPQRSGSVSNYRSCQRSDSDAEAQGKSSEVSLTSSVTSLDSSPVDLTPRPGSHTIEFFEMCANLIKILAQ
T1 sequence (Q9Y478 whole entry): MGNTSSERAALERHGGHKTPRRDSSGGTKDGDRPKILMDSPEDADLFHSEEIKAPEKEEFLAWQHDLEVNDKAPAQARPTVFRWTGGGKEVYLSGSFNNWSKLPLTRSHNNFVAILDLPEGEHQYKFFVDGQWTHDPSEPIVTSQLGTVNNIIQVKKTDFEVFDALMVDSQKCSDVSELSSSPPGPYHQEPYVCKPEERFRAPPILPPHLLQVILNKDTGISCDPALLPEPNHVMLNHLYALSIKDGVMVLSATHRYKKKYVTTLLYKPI
T1 sequence (Q9UGJ0 whole entry partner): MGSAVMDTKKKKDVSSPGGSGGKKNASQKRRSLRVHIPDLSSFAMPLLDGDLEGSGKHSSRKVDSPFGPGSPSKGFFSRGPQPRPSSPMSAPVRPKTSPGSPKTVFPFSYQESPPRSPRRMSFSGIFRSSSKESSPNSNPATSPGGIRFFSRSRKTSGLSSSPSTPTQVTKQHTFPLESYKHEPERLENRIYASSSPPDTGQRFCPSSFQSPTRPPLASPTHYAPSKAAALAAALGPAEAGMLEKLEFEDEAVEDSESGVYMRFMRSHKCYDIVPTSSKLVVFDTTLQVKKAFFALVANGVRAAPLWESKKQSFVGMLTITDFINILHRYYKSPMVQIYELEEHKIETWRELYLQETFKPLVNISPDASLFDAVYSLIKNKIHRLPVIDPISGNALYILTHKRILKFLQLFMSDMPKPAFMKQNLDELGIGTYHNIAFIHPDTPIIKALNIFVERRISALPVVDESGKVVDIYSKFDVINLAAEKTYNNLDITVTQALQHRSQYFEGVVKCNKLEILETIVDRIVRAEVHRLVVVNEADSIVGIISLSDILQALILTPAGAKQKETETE

Row | SMILES | activity: Ratio between the % of control (basal activity) of compound of formula (I) at 30 μM and the % of control (basal activity) of AMP at 30 μM [%]
1 | O=c1[nH]c2scc(-c3ccc(Br)cc3)c2c(O)c1-c1cccnc1 [Compound 28] | 109
2 | Cc1ccc(-c2c(O)c3c(-c4ccc(F)cc4O)c(Cl)sc3[nH]c2=O)cc1 [Compound 214] | 207
3 | COc1ccc(-c2csc3[nH]c(=O)c(-c4ccccc4)c(O)c23)c(OC)c1 [Compound 60] | 100
4 | Cc1ccc(-c2csc3[nH]c(=O)c(-c4cccc(C#N)c4)c(O)c23)c(O)c1 [Compound 87] | 287
5 | O=C(O)c1sc2[nH]c(=O)c(-c3ccccc3)c(O)c2c1-c1ccccc1 [Compound 3] | 102
6 | NC(=NO)c1ccc(-c2c(O)c3c(-c4ccccc4)c(Cl)sc3[nH]c2=O)cc1 [Compound 155] | 95
7 | O=c1[nH]c2scc(-c3ccc(Br)cc3)c2c(O)c1-c1ccccc1 [Compound 25] | 119
8 | O=c1[nH]c2scc(-c3ccc(O)c(F)c3)c2c(O)c1-c1ccccc1 [Compound 72] | 150
9 | O=c1[nH]c2scc(-c3cccc(O)c3)c2c(O)c1-c1ccccc1 [Compound 48] | 109
10 | COc1ccc(-c2csc3[nH]c(=O)c(-c4ccc(F)cc4)c(O)c23)cc1 [Compound 42] | 110
11 | O=C(O)c1ccc(-c2c(O)c3c(-c4ccccc4)c(Cl)sc3[nH]c2=O)cc1 [Compound 153] | 111
12 | CS(=O)(=O)c1cccc(-c2c(O)c3c(-c4ccccc4)c(Cl)sc3[nH]c2=O)c1 [Compound 145] | 90
13 | O=c1[nH]c2scc(-c3ccc(O)cc3)c2c(O)c1-c1ccc(O)cc1 [Compound 41] | 92
14 | O=c1[nH]c2sc(Cl)c(-c3cc(Cl)c(O)cc3F)c2c(O)c1-c1ccccc1 [Compound 113] | 95
15 | N=C(N)c1cccc(-c2c(O)c3c(-c4ccccc4)c(Cl)sc3[nH]c2=O)c1 [Compound 142] | 126
16 | O=c1[nH]c2scc(-c3ccc(F)cc3O)c2c(O)c1-c1ccccc1 [Compound 66] | 144
17 | O=c1[nH]c2scc(-c3ccccc3F)c2c(O)c1-c1ccccc1 [Compound 56] | 107
18 | O=c1[nH]c2scc(-c3ccc(CO)cc3)c2c(O)c1-c1ccccc1 [Compound 38] | 119
19 | O=c1[nH]c2scc(-c3ccc(Br)c(O)c3)c2c(O)c1-c1ccccc1 [Compound 74] | 112
20 | Cc1ccc(-c2c(Cl)sc3[nH]c(=O)c(-c4ccccc4)c(O)c23)cc1 [Compound 135] | 113
21 | O=c1[nH]c2scc(-c3ccccc3Cl)c2c(O)c1-c1ccccc1 [Compound 58] | 103
22 | O=c1[nH]c2sc(Cl)c(-c3c(F)cccc3F)c2c(O)c1-c1ccccc1 [Compound 106, 2-chloro-3-(2,6-diflurophenyl)-4-hydroxy-5-phenyl-6,7-dihydro-thieno[2,3-b]pyridin-6-one] | 115
23 | O=c1[nH]c2scc(-c3cccc(F)c3)c2c(O)c1-c1ccccc1 [Compound 49] | 131
24 | Cc1ccc(-c2csc3[nH]c(=O)c(-c4ccccc4)c(O)c23)cc1O [Compound 85] | 406
25 | CCCCc1ccc(-c2c(Cl)sc3[nH]c(=O)c(-c4ccccc4)c(O)c23)cc1 [Compound 134] | 93

Row | SMILES | activity: Ratio between the % of control (basal activity) of compound of formula (I) at 30 μM and the % of control (basal activity) of AMP at 30 μM [%]
26 | O=c1[nH]c2scc(-c3ccccc3)c2c(O)c1-c1ccccc1 [Compound 16] | 107
27 | O=c1[nH]c2sc(Cl)c(-c3ccc(O)cc3F)c2c(O)c1-c1ccccc1 [Compound 116] | 120
28 | O=c1[nH]c2sc(Cl)c(-c3ccc(F)cc3F)c2c(O)c1-c1ccccc1 [Compound 114] | 115
29 | COc1ccc(-c2c(Cl)sc3[nH]c(=O)c(-c4ccccc4)c(O)c23)cc1F [Compound 110] | 121
30 | O=c1[nH]c2sc(Cl)c(-c3ccc(F)cc3)c2c(O)c1-c1ccc(F)cc1 [Compound 203] | 251
31 | CNC(=O)c1ccc(-c2c(O)c3c(-c4ccccc4)c(Cl)sc3[nH]c2=O)cc1 [Compound 150] | 130
32 | O=c1[nH]c2scc(-c3c(F)cccc3F)c2c(O)c1-c1ccccc1 [Compound 78] | 160
33 | O=c1[nH]c2scc(-c3cc(F)ccc3O)c2c(O)c1-c1ccccc1 [Compound 75] | 135
34 | COc1ccc(-c2c(O)c3c(-c4ccc(F)cc4)csc3[nH]c2=O)cc1 [Compound 44] | 98
35 | O=c1[nH]c2sc(Cl)c(-c3cccc(CO)c3)c2c(O)c1-c1ccccc1 [Compound 124] | 195
36 | O=C(O)c1cccc(-c2c(O)c3c(-c4ccc(F)cc4)c(Cl)sc3[nH]c2=O)c1 [Compound 130] | 117
37 | O=c1[nH]c2scc(-c3ccc(Br)cc3)c2c(O)c1-c1ccncc1 [Compound 29] | 103
38 | O=c1[nH]c2scc(-c3ccc(O)cc3O)c2c(O)c1-c1ccccc1 [Compound 61] | 146
39 | O=c1[nH]c2scc(-c3ccc(F)cc3)c2c(O)c1-c1ccc(O)cc1 [Compound 45] | 114
40 | COc1cc(C)ccc1-c1c(Cl)sc2[nH]c(=O)c(-c3ccccc3)c(O)c12 [Compound 105] | 206
41 | COc1ccc(-c2c(O)c3c(-c4ccc(OC)cc4)csc3[nH]c2=O)cc1 [Compound 40] | 109
42 | O=c1[nH]c2sc(Cl)c(-c3ccc(O)cc3)c2c(O)c1-c1ccc(F)cc1 [Compound 132] | 108
43 | COc1cc(-c2csc3[nH]c(=O)c(-c4ccccc4)c(O)c23)ccc1Br [Compound 73] | 94
44 | NC(=NO)c1cccc(-c2c(O)c3c(-c4ccccc4)c(Cl)sc3[nH]c2=O)c1 [Compound 146] | 103
45 | CNC(=O)c1cccc(-c2c(O)c3c(-c4ccccc4)c(Cl)sc3[nH]c2=O)c1 [Compound 141] | 403
46 | O=c1[nH]c2sc(Cl)c(-c3ccccc3)c2c(O)c1-c1ccccc1OCc1ccccc1 [Compound 158] | 110
47 | CS(=O)(=O)c1ccc(-c2c(O)c3c(-c4ccccc4)c(Cl)sc3[nH]c2=O)cc1 [Compound 154] | 131
48 | O=c1[nH]c2scc(-c3ccccc3O)c2c(O)c1-c1ccccc1 [Compound 55] | 146
49 | NC(=O)c1ccc(-c2c(O)c3c(-c4ccccc4)c(Cl)sc3[nH]c2=O)cc1 [Compound 151] | 134
50 | O=c1[nH]c2scc(-c3cc(O)cc(O)c3)c2c(O)c1-c1ccccc1 [Compound 68] | 96
